Structures can show the parent of a compound that is named as a salt. Where two headings read alike, the source gives them in different places.
Assays:
[1] = test system: Calu-3 cells; test: cells; conditions: Homo sapiens; for Emax: Calu-3, 48 h, read-out: Calu-3 cell count Sinf Average
[2] = Uninfected Calu-3 48 h Cell-Titer Glo cytotoxicity counter screen; conditions: human, uninfected Calu-3 cells
[3] = test system: Calu-3 cells; test: as above
[4] = cited from earlier work; for Cmax: read-out: Approx. Cmax
[5] = test system: SARS-CoV-2; test: microbe, parasite or virus in culture; type: cell-based; conditions: for Emax: Severe acute respiratory syndrome coronavirus 2, Calu-3, 48 h, read-out: Calu-3 CoV-2 Sinf Average; for Calu-3 SI: selectivity index, uninfected Calu-3 CC50 / Calu-3 SARS-CoV-2 EC50
[6] = Uninfected HeLa-ACE2 24 h live/dead cytotoxicity counter screen; type: cell-based, human; conditions: human, uninfected HeLa-ACE2 cells
[7] = test system: HeLa-ACE2 cells; test: as above; type: cell-based, human
[8] = test system: HeLa-ACE2 cells; test: cells; conditions: Homo sapiens; for Emax: HeLa-ACE2, 24 h, read-out: HeLa-ACE2 cell count Sinf Average
[9] = test system: SARS-CoV-2; test: microbe, parasite or virus in culture; type: cell-based; conditions: for Emax: Severe acute respiratory syndrome coronavirus 2, HeLa-ACE2, 24 h, read-out: HeLa-ACE2 CoV-2 Sinf Average; for HeLa-ACE2 SI: selectivity index, uninfected HeLa-ACE2 CC50 / SARS-CoV-2 EC50
[10] = HepG2 72 h CellTiter-Glo cytotoxicity; conditions: human, HepG2 cells
[11] = test system: HepG2; test: HepG2 72 h CellTiter-Glo cytotoxicity; conditions: 72 h
[12] = test system: HeLa-ACE2 cells; test: cells; type: cell-based, human; conditions: Homo sapiens, HeLa-ACE2; read-out: HeLa-ACE2 TOA cell count EC50 GeoMean
[13] = HEK293T 72 h CellTiter-Glo cytotoxicity; conditions: human, HEK293T cells
[14] = test system: HEK293T; test: HEK293T 72 h CellTiter-Glo cytotoxicity; conditions: 72 h
[15] = test system: SARS-CoV-2; test: microbe, parasite or virus in culture; type: cell-based; conditions: for Emax: Severe acute respiratory syndrome coronavirus 2, HeLa-ACE2, 10 h, curve plateau at infinite concentration, read-out: HeLa-ACE2 TOA CoV-2 Sinf Average; for EC50: read-out: HeLa-ACE2 TOA CoV-2 EC50 GeoMean
[16] = test system: HeLa-ACE2 cells; test: Total cell count in the HeLa-ACE2 TOA assay; type: cell-based; conditions: Homo sapiens
Text: Supplement 41467_2021_23328_MOESM3_ESM.xlsx, sheet "Table S1" | column: HeLa-ACE2 TOA cell count

[17] = test system: SARS-CoV-2; type: cell-based; conditions: combination with remdesivir, synergy score δ
[18] = Calu-3 Uninf. cells CC50 (µM), reconfirmed hits
[19] = curve-fit effect at infinite concentration, average
[20] = Severe acute respiratory syndrome coronavirus 2, Calu-3, reconfirmed hits, read-out: Calu-3 SARS-CoV-2 EC50
[21] = reconfirmed hits, read-out: HeLa-ACE2 Uninf. cells CC50
[22] = Severe acute respiratory syndrome coronavirus 2, HeLa-ACE2, reconfirmed hits, read-out: HeLa-ACE2 SARS-CoV-2 EC50
[23] = Calu-3, read-out: Calu-3 cell count EC50 GeoMean, detail block
[24] = Calu-3 uninfected cytotoxicity CC50 GeoMean, detail block
[25] = curve plateau at infinite concentration
[26] = Severe acute respiratory syndrome coronavirus 2, Calu-3, detail block, read-out: Calu-3 CoV-2 EC50 GeoMean
[27] = Severe acute respiratory syndrome coronavirus 2, HeLa-ACE2, detail block
[28] = detail block, read-out: HeLa-ACE2 uninfected cytotoxicity CC50 GeoMean
[29] = HeLa-ACE2, read-out: HeLa-ACE2 cell count EC50 GeoMean, detail block
[30] = Severe acute respiratory syndrome coronavirus 2, HeLa-ACE2, detail block, read-out: HeLa-ACE2 CoV-2 EC50 GeoMean

SMILES | Emax [1] | CC50 at 48 h [2, 18] | Approx. t1/2 ([4]; human, ref [33]-[49]) | EC50 [5, 20] | CC50 at 24 h [6, 21] | Emax [8] | EC50 [9, 22] | EC50 [1, 23] | CC50 at 48 h [2, 24] | Calu-3 uninfected cytotoxicity Sinf Average [3, 25] | CC50 at 72 h [10] | HepG2 72-hour cytotoxicity Sinf Average [11] | EC50 [12] | CC50 at 72 h [13] | HEK293T 72-hour cytotoxicty Sinf Average [14] | Emax [5, 25] | EC50 [5, 26] | Emax [15] | HeLa-ACE2 uninfected cytotoxicity Sinf Average [7, 25] | Emax [9, 25] | other results
COC(=O)[C@]12CCC(C)(C)C[C@H]1[C@H]1C(=O)C=C3[C@@]4(C)C=C(C#N)C(=O)C(C)(C)[C@@H]4CC[C@@]3(C)[C@]1(C)CC2 [Bardoxolone methyl] | 41% | 3.06 µM | 39 h | 0.079 µM | 3.1 µM | 101% | 0.541 µM | – | – | – | – | – | – | – | – | – | – | – | – | – | EC50 ([1]; Calu-3, read-out: Calu-3 cell count EC50 GeoMean, unrounded geometric mean): 0.116 µM; CC50 at 48 h ([2]; Calu-3 uninfected cytotoxicity CC50 GeoMean, unrounded geometric mean): 3.06 µM; Calu-3 uninfected cytotoxicity Sinf Average [3, 19]: -97%; Cmax ([4]; human, oral, ref [36],[37],[42],[43] as in column Refs.): 50 nM; Emax [5, 19]: 96%; EC50 ([5]; Severe acute respiratory syndrome coronavirus 2, Calu-3, unrounded geometric mean, read-out: Calu-3 CoV-2 EC50 GeoMean): 0.0794 µM; CC50 at 24 h ([6]; uninfected cells, Fig. 2b group, read-out: HeLa-ACE2 CC50): ≤ 3 µM; CC50 at 24 h ([6]; unrounded geometric mean, read-out: HeLa-ACE2 uninfected cytotoxicity CC50 GeoMean): 3.1 µM; HeLa-ACE2 uninfected cytotoxicity Sinf Average [7, 19]: -101%; EC50 ([8]; HeLa-ACE2, read-out: HeLa-ACE2 cell count EC50 GeoMean, unrounded geometric mean): 1.26 µM; Emax [9, 19]: 100%; EC50 ([9]; Severe acute respiratory syndrome coronavirus 2, HeLa-ACE2, unrounded geometric mean, read-out: HeLa-ACE2 CoV-2 EC50 GeoMean): 0.541 µM
COC(=O)[C@H]1[C@H]2C[C@@H]3c4[nH]c5cc(OC)ccc5c4CCN3C[C@H]2C[C@@H](OC(=O)c2cc(OC)c(OC)c(OC)c2)[C@@H]1OC [Reserpine] | 100% | – | – | – | – | – | – | > 9.98 µM | > 28.5 µM | -100% | 33 µM | -100% | > 9.61 µM | 11.7 µM | -100% | 100% | > 9.98 µM | 100% | -100% | 100% | Calu-3 SI [5]: 2.85; TOA:HeLa-ACE2 EC50 Ratio [15]: 0.542; EC50 [15, 27]: 2.99 µM; CC50 at 24 h [6, 28]: > 36.4 µM; EC50 [8, 29]: > 9.6 µM; EC50 [9, 30]: > 5.51 µM; HeLa-ACE2 SI [9]: > 6.60
CC(C)(C)Cn1c(N)nc2ccc(-c3[nH]c(C(C)(C)C)nc3-c3ccc(F)cc3)nc21 [Ralimetinib mesylate/LY2228820, Ralimetinib mesylate] | 95% | 13.8 µM | 190 h | 3.83 µM | 27.4 µM | -60% | 1.87 µM | – | – | -97% | 19.8 µM | -100% | – | 20.3 µM | -100% | 100% | – | 100% | -99% | 100% | EC50 ([1]; Calu-3, read-out: Calu-3 cell count EC50 GeoMean): 5.55 µM; CC50 at 48 h ([2]; Calu-3 uninfected cytotoxicity CC50 GeoMean): 13.8 µM; Emax ([16]; HeLa-ACE2, 10 h, curve plateau at infinite concentration, read-out: HeLa-ACE2 TOA cell count Sinf Average): 55%; EC50 ([16]; HeLa-ACE2, read-out: HeLa-ACE2 TOA cell count EC50 GeoMean): > 4.43 µM; HeLa-ACE2 synergy score with remdesivi [δ] [17]: -0.846; Cmax ([4]; human oral, ref [33]-[49]): 5000 nM; EC50 ([15]; Severe acute respiratory syndrome coronavirus 2, HeLa-ACE2): 0.787 µM; CC50 at 24 h ([6]; read-out: HeLa-ACE2 uninfected cytotoxicity CC50 GeoMean): 27.4 µM; EC50 ([8]; HeLa-ACE2, read-out: HeLa-ACE2 cell count EC50 GeoMean): > 6.87 µM
CC(CN(C)C)CN1c2ccccc2CCc2ccccc21 (stereo not shown) [Trimipramine maleate] | – | – | – | – | – | – | – | > 9.98 µM | > 29 µM | -100% | 18.8 µM | -100% | > 9.59 µM | 12.8 µM | -102% | 100% | > 9.98 µM | 100% | -100% | 99% | Calu-3 SI [5]: 2.90; TOA:HeLa-ACE2 EC50 Ratio [15]: 2.576; EC50 [15, 27]: 5.42 µM; CC50 at 24 h [6, 28]: 21.3 µM; EC50 [8, 29]: > 9.59 µM; EC50 [9, 30]: 2.11 µM; HeLa-ACE2 SI [9]: 10.11
